Measurements published in patent publication EP0181471A1, “Pyrazole derivatives, process for their preparation and medicaments containing them” (LUDWIG HEUMANN & CO GMBH, priority 1984, dated 1986).

Test system: Histamin-H2-Rezeptoren
Test: Inhibition of histamine-stimulated gastric acid secretion in the conscious fistula cat
Format: in vivo
Details: wache Fistelkatze; Stimulator: Histamin; i.V.
Text: Weiterhin kann die H2-antagonistische Wirkung an wachen Heidennain-Pouch-Hunden nach der Methode von Black et al., "Nature" 236, 385 (1972) und an wachen Fistelkatzen gezeigt werden.

Structure (SMILES): CN=C(NC#N)NCCSCc1nc[nH]c1C [CIMETIDIN, Cimetidin]
- ID50: 1,4 umol/k^g
